The text below walks through data of patent US9560852B2, “Combinations of biological control agents and insecticides or fungicides” (Bayer Intellectual Property GmbH, priority 2008, dated 2017).

Holding throughout (type): in vivo
The subject of one test is cotton seed. Put plainly: Root system enhancement by neonicotinoid seed treatment, WinRhizo root analysis. As to conditions: 28 days after planting, fungicide base plus insecticide seed treatment. The protocol:
In this experiment cotton seed was treated with a fungicide base and one of three commonly used neonicotinoid insecticides: imidacloprid (sold under the trademark GAUCHO 600@0.375 mg ai/seed), clothianidin (sold under the trademark PONCHO 600@0.375 mg ai/seed), and thiomethoxam (sold under the trademark CRUISER@0.34 mg ai/seed).
Fifty seeds from each of the four treatments were planted. […] Seedlings were harvested 28 days after planting and analyzed using the WinRhizo® root analysis system. There was no significant difference in germination.
In Table 1, a comparison of Length, Surface Area, Volume, and Tips/Forks/Crossings, was made through the analysis of 40-45 plants per treatment and by averaging 10 repetitions bracketing the median for each category.

Test [1] relates to Soybeans (Variety-S2743-4RR). Put plainly: Soybean seed treatment in standard soil, height and WinRhizo root system analysis. Particulars: 28 days. The source says:
(§1) Soybeans (Variety-S2743-4RR) were planted with a base fungicide package and imidacloprid (sold under the trademark GAUCHO 600@62.5 gm AI/100 kg), a biological nematicide, or a combination of both. The seed were then planted in standard soil and soil infested with Soybean Cyst nematodes. Plants were harvested 28 days later (˜50 plants/treatment/soil type) and compared by height and by a WinRhizo® root system analysis (length, surface area, volume, tips, forks, and crossings (T/F/C))

Test [2] is described as follows: Soybean seed treatment in soil infested with Soybean Cyst nematodes, height and WinRhizo root system analysis. Particulars: SCN-infested soil versus standard soil, same treatment.
Source text: as §1
(§2) The final column of Table 2 compares the total average percent difference in each of the treatments with soybean cyst nematode pressure. The plants with the insecticide alone fared the worst with stunted growth both above and below the soil and a total average reduction of 53%. […] The best overall treatment contained both the biological nematicide and the insecticide and there was only an 8% difference in overall plant development.

A further test concerns Soybean Cyst nematodes. Described as above.
Source text: as §1, §2

Setting [3] is: soil infested with Soybean Cyst nematodes (SCN), 28 days.

With `CN/C(=N\[N+](=O)[O-])NCc1cnc(Cl)s1` [Clothianidin, clothianidin], in the test with cotton seed, the Length is 88.11 a cm, the SurfArea was determined as 16.77 a cm^2, the “T/F/C (Tips/Forks/Crossings)” value is 93.93 a and the Volume turned out to be 0.29 a cm^3.

On to `O=[N+]([O-])NC1=NCCN1Cc1ccc(Cl)nc1` [Imidacloprid, imidacloprid], for which, in the test with cotton seed, the Length stood at 92.56 a cm, the SurfArea is 20.11 a cm^2, the “T/F/C (Tips/Forks/Crossings)” value amounted to 85.60 a and the Volume is 0.35 a cm^3. In test [1], the Height is recorded as 26.78 cm, the Length came to 281.93 cm, the SurfArea was 66.40 cm^2 and the T/F/C is on record as 497.68. In test [1], the Volume is 1.25 cm^3. Further, the “% difference (total average percent difference with soybean cyst nematode pressure)” value in test [2] (listed as NI) is recorded as 52.52%. The “% difference (total average percent difference with soybean cyst nematode pressure)” value in test [2] (listed as insecticide) came to 53%. Besides, in the test with Soybean Cyst nematodes (insecticide alone), the direct nematicidal activity entry is reported as “no direct nematicidal activity”. In addition, in the test with Soybean Cyst nematodes (setting [3]), the Height stood at 19.09 cm, the Length is on record as 167.41 cm, the SurfArea amounted to 44.51 cm^2 and the T/F/C came out at 283.90. The Volume in the test with Soybean Cyst nematodes (setting [3]) was 0.97 cm^3.

For the molecule `CN1COCN(Cc2cnc(Cl)s2)/C1=N\[N+](=O)[O-]` [Thiomethoxam, thiomethoxam], in the test on cotton seed, the Length was found to be 95.01 a cm, the SurfArea came out at 17.43 a cm^2, the “T/F/C (Tips/Forks/Crossings)” value was determined as 77.17 a and the Volume is listed as 0.28 a cm^3.
